Measured values: patent US20150342899A1 (NOVEN PHARMACEUTICALS, INC., priority 2012, published 2015)

Test: in vitro flux study with human cadaver skin using a Franz cell apparatus
Type: in vitro ADME
Experimental: An in vitro flux study was conducted with human cadaver skin using a Franz cell apparatus to determine the flux of each drug from the matrix over a 24-hour period.

## Clc1cccc(Cl)c1N=C1NCCN1 [clonidine]
  pharmacokinetic (delivery) profile: delivered over an extended period of time

## CC(N)Cc1ccccc1 (stereo not drawn) [amphetamine, alpha-methylphenethylamine]
Transdermal system from polymer matrix of Example 1, about 1.05 mg/cm^2 amphetamine and about 0.28 mg/cm^2 clonidine, 24-hour period, FIG. 1, one sample
  flux of drug from the matrix: sufficient to achieve a therapeutic effect
